The values that follow come from US11957687B2 (REGENERON PHARMACEUTICALS, INC., priority 2019, dated 2024).

Molecules are shown by their SMILES. Some results are limits rather than exact numbers.

Series [1] can be described thus: Microsome stability assay, human liver microsomes. Conditions: 1 μM compound, 0.5 mg/mL microsomal protein; for microsomal CLint at 1 h, 1 µM / half-life at 1 h, 1 µM / microsomal CLint at 1 μM / half-life at 1 μM: human, human liver microsomes, pooled, NADPH, 37° C.; for microsomal CLint at 1 h, 1 µM / microsomal CLint at 1 μM: read-out: Microsome Stability Human liver microsomes Cl; for half-life at 1 h, 1 µM / half-life at 1 μM: read-out: Microsome Stability Human liver microsomes T½. In kind it is in vitro ADME. Summed up:
(§1)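 Compound at 1 μM incubated at 37° C with pooled human or mouse liver microsomes (0.5 mg/mL protein) plus NADPH regenerating system, sampled at 0–60 min; a 60-min no-NADPH incubation also included. Single replicate; LC/MS/MS disappearance from analyte/internal standard peak area ratios, without standard curve.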

For series [2], the target named is HSD17B13 (Homo sapiens (Human), UniProt Q7Z5P4). As to the kind of experiment: HSD17B13 enzymatic inhibition assay (150 nM or 50 nM HSD17B13). The series is classed as biochemical. Conditions: 50 nM HSD17B13; read-out: Inhibition of 50 nM of HSD17B13 IC50.
Sequence of HSD17B13 (Q7Z5P4 other isoform, or with tags, fused parts or gaps): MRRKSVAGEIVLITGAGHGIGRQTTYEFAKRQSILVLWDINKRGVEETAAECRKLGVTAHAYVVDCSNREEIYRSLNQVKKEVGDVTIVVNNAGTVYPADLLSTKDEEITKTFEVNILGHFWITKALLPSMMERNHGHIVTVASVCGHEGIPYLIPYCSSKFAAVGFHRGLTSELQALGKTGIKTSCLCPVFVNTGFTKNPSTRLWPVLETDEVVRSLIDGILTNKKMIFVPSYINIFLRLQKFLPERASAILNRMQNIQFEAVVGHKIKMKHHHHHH
A short description of series [3]: Microsome stability assay, mouse liver microsomes. Conditions: 1 μM compound, 0.5 mg/mL microsomal protein; for microsomal CLint at 1 μM / half-life at 1 μM / microsomal CLint at 1 h, 1 µM / half-life at 1 h, 1 µM: mouse, mouse liver microsomes, pooled, NADPH, 37° C.; for microsomal CLint at 1 μM / microsomal CLint at 1 h, 1 µM: read-out: Microsome Stability Mouse liver microsomes Cl; for half-life at 1 μM / half-life at 1 h, 1 µM: read-out: Microsome Stability Mouse liver microsomes T½. The series is classed as in vitro ADME. In short, it runs like this:
as §1

For series [4], the target named is HSD17B2 (Homo sapiens (Human), UniProt P37059). The series is described as follows: HSD17B2 enzymatic blocking assay. In kind it is biochemical. Conditions: 1.8 μM Estradiol, 650 μM NAD; read-out: Inhibition of HSD17B2 IC50. In short, it runs like this: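 Mammalian-expressed enzyme at 2 ng/μL in 50 mM Tris-HCl pH 7.5 with detergents/BSA, preincubated 15 min at 20° C. with compound (10-point titration). Reaction with 1.8 μM estradiol and 650 μM NAD ran 45 min at 20° C.; NADH measured by NADH-Glo luminescence and IC50 derived.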
Sequence of HSD17B2 (P37059 other isoform, or with tags, fused parts or gaps): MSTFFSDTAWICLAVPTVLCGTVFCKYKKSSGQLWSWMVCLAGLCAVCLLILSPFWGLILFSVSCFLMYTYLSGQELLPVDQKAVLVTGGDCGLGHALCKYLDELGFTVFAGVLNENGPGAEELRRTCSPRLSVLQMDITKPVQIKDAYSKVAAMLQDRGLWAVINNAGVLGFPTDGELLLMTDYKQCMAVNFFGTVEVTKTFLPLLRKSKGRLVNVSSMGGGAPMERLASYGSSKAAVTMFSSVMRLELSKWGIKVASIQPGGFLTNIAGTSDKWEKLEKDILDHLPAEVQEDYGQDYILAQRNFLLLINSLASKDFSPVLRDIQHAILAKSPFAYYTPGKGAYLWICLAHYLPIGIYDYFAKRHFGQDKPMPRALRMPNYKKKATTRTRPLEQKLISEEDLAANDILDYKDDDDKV

For series [5], the target named is HSD17B1 (Homo sapiens (Human), UniProt P14061). As to the kind of experiment: HSD17B1 enzymatic blocking assay. Conditions: 25 μM Estradiol, 500 μM NAD; read-out: Inhibition of HSD17B1 IC50. In kind it is biochemical. Summed up: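 Activity followed as NADH formed on estradiol oxidation, read by NADH-Glo luminescence after 1 h detection in the dark at room temperature. Compounds preincubated with enzyme 30 min at room temperature; 0.5% DMSO and no-substrate controls. IC50 fitted from luminescence.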
Sequence of HSD17B1 (P14061 other isoform, or with tags, fused parts or gaps): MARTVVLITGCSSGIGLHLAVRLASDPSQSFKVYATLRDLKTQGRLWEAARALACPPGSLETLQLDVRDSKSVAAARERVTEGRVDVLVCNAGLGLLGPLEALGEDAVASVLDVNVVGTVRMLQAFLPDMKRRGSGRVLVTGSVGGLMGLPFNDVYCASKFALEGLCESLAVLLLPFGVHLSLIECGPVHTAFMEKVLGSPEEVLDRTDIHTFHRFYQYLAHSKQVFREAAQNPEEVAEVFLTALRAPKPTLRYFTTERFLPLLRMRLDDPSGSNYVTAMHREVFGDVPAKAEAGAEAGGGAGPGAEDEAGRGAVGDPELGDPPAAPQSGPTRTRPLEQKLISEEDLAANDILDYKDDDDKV

As for `O=C(Nc1cccc2c(O)cccc12)c1ccc(C(F)(F)F)[nH]c1=O` [Compound 223, N-(5-hydroxynaphthalen-1-yl)-2-oxo-6-(trifluoromethyl)-1,2-dihydropyridine-3-carboxamide], in series [1], the “Microsome Stability Human liver microsomes % Remaining @60 min” value was determined as 60.30%; the microsomal CLint at 1 h, 1 µM was 14.8 µL/min/mg; the half-life at 1 h, 1 µM worked out at 1.56 h. Besides, the IC50 in series [2] was 0.35 µM. Besides, in series [3], the “Microsome Stability Mouse liver microsomes % Remaining @60 min” value was determined as 83.80%, the microsomal CLint at 1 μM was less than 9.6 µL/min/mg and the half-life at 1 μM is greater than 2.42 h. The IC50 in series [4] was determined as 28.6 µM. The half-inhibitory concentration (IC50) in series [5] was greater than 30 µM.

As to `Nc1cccc2c(NC(=O)c3ccc(C(F)(F)F)[nH]c3=O)cccc12` [Compound 228, N-(5-aminonaphthalen-1-yl)-2-oxo-6-(trifluoromethyl)-1,2-dihydropyridine-3-carboxamide], in series [1], the “Microsome Stability Human liver microsomes % Remaining @60 min” value is 60.40%; the microsomal CLint at 1 h, 1 µM was 16.4 µL/min/mg; the half-life at 1 h, 1 µM was determined as 1.41 h. Further, in series [2], the IC50 turned out to be 0.56 µM. In series [3], the “Microsome Stability Mouse liver microsomes % Remaining @60 min” value worked out at 76.60%, the microsomal CLint at 1 μM was less than 9.6 µL/min/mg and the half-life at 1 μM was greater than 2.42 h. Besides, the IC50 in series [4] came to 28 µM. Besides, in series [5], the IC50 was found to be 24.8 µM.

As to `O=C(NC1CCCc2c(O)cccc21)c1ccc(C(F)(F)F)[nH]c1=O` (stereo not drawn) [Compound 230, N-(5-hydroxy-1,2,3,4-tetrahydronaphthalen-1-yl)-2-oxo-6-(trifluoromethyl)-1,2-dihydropyridine-3-carboxamide], in series [1], the “Microsome Stability Human liver microsomes % Remaining @60 min” value was 83.40%, the microsomal CLint at 1 μM is less than 9.6 µL/min/mg and the half-life at 1 μM was greater than 2.42 h. Further, the IC50 in series [2] was determined as 0.21 µM. Moreover, in series [3], the “Microsome Stability Mouse liver microsomes % Remaining @60 min” value came to 94.70%, the microsomal CLint at 1 μM is less than 9.6 µL/min/mg and the half-life at 1 μM is greater than 2.42 h. Moreover, in series [4], the IC50 worked out at 40.7 µM. Moreover, the IC50 in series [5] was greater than 30 µM.

Consider `COc1ccc2c(c1)Sc1cc(OC)ccc1C2NC(=O)c1ccc(C(F)(F)F)[nH]c1=O` [Compound 241, N-(3,6-dimethoxy-9H-thioxanthen-9-yl)-2-oxo-6-(trifluoromethyl)-1,2-dihydropyridine-3-carboxamide], for which, in series [1], the “Microsome Stability Human liver microsomes % Remaining @60 min” value came to 78%, the microsomal CLint at 1 μM was less than 9.6 µL/min/mg and the half-life at 1 μM is greater than 2.42 h. Further, the IC50 in series [2] was found to be 0.03 µM. For the same compound, in series [3], the “Microsome Stability Mouse liver microsomes % Remaining @60 min” value came out at 64%; the microsomal CLint at 1 h, 1 µM came to 13.4 µL/min/mg; the half-life at 1 h, 1 µM was 1.72 h. In series [4], the IC50 was greater than 100 µM. In series [5], the half-maximal inhibitory concentration (IC50) was determined as 15.8 µM.

For the compound `Cc1ccc2c(c1)Sc1cc(C)ccc1C2NC(=O)c1ccc(C(F)(F)F)[nH]c1=O` [Compound 252, N-(3,6-dimethyl-9H-thioxanthen-9-yl)-2-oxo-6-(trifluoromethyl)-1,2-dihydropyridine-3-carboxamide], in series [1], the “Microsome Stability Human liver microsomes % Remaining @60 min” value was 73.50%; the microsomal CLint at 1 h, 1 µM turned out to be 11 µL/min/mg; the half-life at 1 h, 1 µM stood at 2.1 h. In addition, the IC50 in series [2] was 0.01 µM. For the same compound, in series [3], the “Microsome Stability Mouse liver microsomes % Remaining @60 min” value came out at 28.60%; the microsomal CLint at 1 h, 1 µM was 41.7 µL/min/mg; the half-life at 1 h, 1 µM came to 0.553 h. Also, the concentration for half-maximal inhibition (IC50) in series [4] turned out to be 19.3 µM. In addition, the IC50 in series [5] worked out at 5.84 µM.

On to `Cc1ccc2c(c1)Oc1cc(C)ccc1C2NC(=O)c1cc(OC2CCOCC2)c(C(F)(F)F)[nH]c1=O` [Compound 260, N-(3,6-dimethyl-9H-xanthen-9-yl)-2-oxo-5-((tetrahydro-2H-pyran-4-yl)oxy)-6-(trifluoromethyl)-1,2-dihydropyridine-3-carboxamide], for which, in series [1], the “Microsome Stability Human liver microsomes % Remaining @60 min” value came out at 24.50%; the microsomal CLint at 1 h, 1 µM was 46.9 µL/min/mg; the half-life at 1 h, 1 µM was 0.492 h. Moreover, the IC50 in series [2] was 0.02 µM. In series [3], the “Microsome Stability Mouse liver microsomes % Remaining @60 min” value worked out at 81.70%, the microsomal CLint at 1 μM is less than 9.6 µL/min/mg and the half-life at 1 μM is greater than 2.42 h. In series [4], the concentration for half-maximal inhibition (IC50) came to 32.1 µM. For the same compound, the concentration for half-maximal inhibition (IC50) in series [5] is 11.1 µM.
